# Source: ChEMBL document CHEMBL1201862, “PubChem BioAssay data set” (2004)
#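 48-hour exposure; five concentrations; linearly interpolated endpoints. Abbreviation: GI50, concentration required for 50% inhibition of growth.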 Calls of active or inactive are those of the source. Cut-off read from the data, not from the text of the source: active = GI50 up to about 1.1 µM and inactive = higher.
# Tests used:
# Test in all cases: DTP human tumour cell line panel, 48 h
# M19-MEL = test system: M19-MEL
# NCI-H522 = test system: NCI-H522
# DMS-114 = test system: DMS-114
# UO-31 = test system: UO-31
# CCRF-CEM = test system: CCRF-CEM
# HOP-92 = test system: HOP-92
# UACC-257 = test system: UACC-257
# EKVX = test system: EKVX
# SR = test system: SR
# NCI-H226 = test system: NCI-H226
# TK-10 = test system: TK-10
# HOP-62 = test system: HOP-62
# OVCAR-5 = test system: OVCAR-5
# SK-MEL-28 = test system: SK-MEL-28
# HL-60 = test system: HL-60
# SNB-78 = test system: SNB-78
# ACHN = test system: ACHN
# NCI-H460 = test system: NCI-H460
# UACC-62 = test system: UACC-62
# RXF 631 = test system: RXF 631
# SK-OV-3 = test system: SK-OV-3
# HT-29 = test system: HT-29
# IGROV-1 = test system: IGROV-1
# HCT-116 = test system: HCT-116
# SNB-19 = test system: SNB-19
# NCI-H23 = test system: NCI-H23
# KM12 = test system: KM12
# K562 = test system: K562
# M14 = test system: M14
# SF-295 = test system: SF-295
# U-251 = test system: U-251
# RXF 393 = test system: RXF 393
# OVCAR-8 = test system: OVCAR-8
# MOLT-4 = test system: MOLT-4
# A549 = test system: A549
# A498 = test system: A498
# CAKI-1 = test system: CAKI-1
# Malme-3M = test system: Malme-3M
# SK-MEL-2 = test system: SK-MEL-2
# SF-539 = test system: SF-539
# OVCAR-3 = test system: OVCAR-3
# HOP-18 = test system: HOP-18
# KM-20L2 = test system: KM-20L2
# SNB-75 = test system: SNB-75
# DLD-1 = test system: DLD-1
# HCC 2998 = test system: HCC 2998
# LOX IMVI = test system: LOX IMVI
# XF498 = test system: XF498
# SN12C = test system: SN12C
# HCT-15 = test system: HCT-15
# COLO 205 = test system: COLO 205
# SF-268 = test system: SF-268
# LXFL 529 = test system: LXFL 529
# SW-620 = test system: SW-620
# 786-0 = test system: 786-0
# DMS-273 = test system: DMS-273
# SK-MEL-5 = test system: SK-MEL-5
# RPMI-8226 = test system: RPMI-8226
# OVCAR-4 = test system: OVCAR-4
compound,measurement,setting,value
C[C@H]1C(=O)c2c(cc(O)c(C3OC(CO)C(O)C(O)C3O)c2O)OC1c1ccc(O)c(O)c1 (some centres not stated),GI50,M19-MEL,> 100 µM (inactive)
same,GI50,NCI-H522,> 100 µM (inactive)
same,GI50,DMS-114,> 100 µM (inactive)
same,GI50,UO-31,> 100 µM (inactive)
same,GI50,CCRF-CEM,> 100 µM (inactive)
same,GI50,HOP-92,> 100 µM (inactive)
same,GI50,UACC-257,> 100 µM (inactive)
same,GI50,EKVX,> 100 µM (inactive)
same,GI50,SR,> 100 µM (inactive)
same,GI50,NCI-H226,64.9 µM (inactive)
same,GI50,TK-10,> 100 µM (inactive)
same,GI50,HOP-62,> 100 µM (inactive)
same,GI50,OVCAR-5,> 100 µM (inactive)
same,GI50,SK-MEL-28,> 100 µM (inactive)
same,GI50,HL-60,> 100 µM (inactive)
same,GI50,SNB-78,> 100 µM (inactive)
same,GI50,ACHN,> 100 µM (inactive)
same,GI50,NCI-H460,> 100 µM (inactive)
same,GI50,UACC-62,> 100 µM (inactive)
same,GI50,RXF 631,> 100 µM (inactive)
same,GI50,SK-OV-3,> 100 µM (inactive)
same,GI50,HT-29,> 100 µM (inactive)
same,GI50,IGROV-1,> 100 µM (inactive)
same,GI50,HCT-116,> 100 µM (inactive)
same,GI50,SNB-19,> 100 µM (inactive)
same,GI50,NCI-H23,> 100 µM (inactive)
same,GI50,KM12,> 100 µM (inactive)
same,GI50,K562,> 10 µM (inactive)
same,GI50,M14,> 100 µM (inactive)
same,GI50,SF-295,> 100 µM (inactive)
same,GI50,U-251,> 100 µM (inactive)
same,GI50,RXF 393,> 100 µM (inactive)
same,GI50,OVCAR-8,> 100 µM (inactive)
same,GI50,MOLT-4,> 100 µM (inactive)
same,GI50,A549,> 100 µM (inactive)
same,GI50,A498,> 100 µM (inactive)
C#C[C@]1(O)CC[C@H]2[C@@H]3CCc4cc(O)ccc4[C@H]3CC[C@@]21C [ETHINYL ESTRADIOL],GI50,M19-MEL,17.1 µM (inactive)
same,GI50,NCI-H522,10.9 µM (inactive)
same,GI50,DMS-114,16.3 µM (inactive)
same,GI50,CAKI-1,52.6 µM (inactive)
same,GI50,UO-31,> 10 µM (inactive)
same,GI50,CCRF-CEM,23.1 µM (inactive)
same,GI50,HOP-92,22.9 µM (inactive)
same,GI50,UACC-257,41 µM (inactive)
same,GI50,Malme-3M,30.5 µM (inactive)
same,GI50,EKVX,11.7 µM (inactive)
same,GI50,SK-MEL-2,24.5 µM (inactive)
same,GI50,SR,16.7 µM (inactive)
same,GI50,SF-539,17.6 µM (inactive)
same,GI50,NCI-H226,20.3 µM (inactive)
same,GI50,OVCAR-3,28 µM (inactive)
same,GI50,TK-10,43.9 µM (inactive)
same,GI50,HOP-18,> 100 µM (inactive)
same,GI50,KM-20L2,16.7 µM (inactive)
same,GI50,SNB-75,12.6 µM (inactive)
same,GI50,DLD-1,12.6 µM (inactive)
same,GI50,OVCAR-5,85.3 µM (inactive)
same,GI50,SK-MEL-28,65.2 µM (inactive)
same,GI50,HL-60,21.7 µM (inactive)
same,GI50,SNB-78,33.4 µM (inactive)
same,GI50,HCC 2998,18.3 µM (inactive)
same,GI50,ACHN,78.7 µM (inactive)
same,GI50,NCI-H460,21.7 µM (inactive)
same,GI50,UACC-62,34.3 µM (inactive)
same,GI50,LOX IMVI,25.2 µM (inactive)
same,GI50,XF498,28.7 µM (inactive)
same,GI50,SN12C,36.8 µM (inactive)
same,GI50,SK-OV-3,24.4 µM (inactive)
same,GI50,HT-29,13 µM (inactive)
same,GI50,IGROV-1,55.5 µM (inactive)
same,GI50,HCT-116,23 µM (inactive)
same,GI50,SNB-19,68.5 µM (inactive)
same,GI50,HCT-15,15.4 µM
same,GI50,NCI-H23,23.7 µM (inactive)
same,GI50,COLO 205,31.3 µM (inactive)
same,GI50,KM12,13.6 µM (inactive)
same,GI50,SF-295,19 µM (inactive)
same,GI50,U-251,7.8 µM (inactive)
same,GI50,SF-268,44.1 µM (inactive)
same,GI50,RXF 393,29 µM (inactive)
same,GI50,OVCAR-8,30.2 µM (inactive)
same,GI50,LXFL 529,21.5 µM (inactive)
same,GI50,SW-620,16.1 µM (inactive)
same,GI50,MOLT-4,18.6 µM (inactive)
same,GI50,786-0,34.6 µM (inactive)
same,GI50,A549,29.1 µM (inactive)
same,GI50,DMS-273,> 10 µM (inactive)
same,GI50,A498,20.1 µM (inactive)
same,GI50,SK-MEL-5,11.1 µM (inactive)
O=[N+]([O-])c1ccc(/C(Cl)=C/c2ccc(/C=C(\Cl)c3ccc([N+](=O)[O-])cc3[N+](=O)[O-])cc2)c([N+](=O)[O-])c1,GI50,M19-MEL,> 100 µM (inactive)
same,GI50,NCI-H522,> 100 µM (inactive)
same,GI50,DMS-114,> 100 µM (inactive)
same,GI50,CAKI-1,> 100 µM (inactive)
same,GI50,UO-31,> 100 µM (inactive)
same,GI50,HOP-92,> 100 µM (inactive)
same,GI50,UACC-257,> 100 µM (inactive)
same,GI50,Malme-3M,> 100 µM (inactive)
same,GI50,EKVX,> 100 µM (inactive)
same,GI50,SK-MEL-2,> 100 µM (inactive)
same,GI50,SR,> 100 µM (inactive)
same,GI50,SF-539,> 100 µM (inactive)
same,GI50,NCI-H226,> 100 µM (inactive)
same,GI50,OVCAR-3,0.729 µM (active)
same,GI50,TK-10,> 100 µM (inactive)
same,GI50,KM-20L2,0.188 µM (active)
same,GI50,SNB-75,> 100 µM (inactive)
same,GI50,HOP-62,> 100 µM (inactive)
same,GI50,DLD-1,> 100 µM (inactive)
same,GI50,OVCAR-5,> 100 µM (inactive)
same,GI50,SK-MEL-28,> 100 µM (inactive)
same,GI50,HL-60,57.4 µM (inactive)
same,GI50,SNB-78,> 100 µM (inactive)
same,GI50,HCC 2998,> 100 µM (inactive)
same,GI50,ACHN,> 100 µM (inactive)
same,GI50,NCI-H460,> 100 µM (inactive)
same,GI50,UACC-62,> 100 µM (inactive)
same,GI50,LOX IMVI,> 100 µM (inactive)
same,GI50,RXF 631,> 100 µM (inactive)
same,GI50,SN12C,> 100 µM (inactive)
same,GI50,RPMI-8226,> 100 µM (inactive)
same,GI50,SK-OV-3,> 100 µM (inactive)
same,GI50,OVCAR-4,> 100 µM (inactive)
same,GI50,HT-29,> 100 µM (inactive)
same,GI50,IGROV-1,> 100 µM (inactive)
same,GI50,HCT-116,> 100 µM (inactive)
same,GI50,HCT-15,> 100 µM
same,GI50,NCI-H23,> 100 µM (inactive)
same,GI50,COLO 205,> 100 µM (inactive)
same,GI50,M14,> 100 µM (inactive)
same,GI50,SF-295,> 100 µM (inactive)
same,GI50,U-251,> 100 µM (inactive)
same,GI50,SF-268,> 100 µM (inactive)
same,GI50,RXF 393,> 100 µM (inactive)
same,GI50,OVCAR-8,> 100 µM (inactive)
same,GI50,LXFL 529,> 100 µM (inactive)
same,GI50,SW-620,> 100 µM (inactive)
same,GI50,MOLT-4,> 100 µM (inactive)
same,GI50,786-0,> 100 µM (inactive)
same,GI50,A549,> 100 µM (inactive)
same,GI50,DMS-273,> 100 µM (inactive)
same,GI50,A498,> 100 µM (inactive)
same,GI50,SK-MEL-5,> 100 µM (inactive)
